Source: PubChem BioAssay AID248 (DTP/NCI, 2004)
Toxic doses and inconclusive results are not listed. Square brackets hold non-standard residues; d marks the D form. Peptide text beside a SMILES is read from it. * marks the point of attachment. ξ: configuration not given here. Cbz = O=C(OCc1ccccc1)*; ξI = CCC(C)C(N)C(=O)O

System: L1210 leukemia ip in BDF1 mice, survival T/C
Experiment: NCI In Vivo Anticancer Drug Screen. Data for tumor model L1210 Leukemia (intraperitoneal) in B6D2F1 (BDF1) mice
Conditions: endpoint: mean survival time, higher = longer survival
How it was run: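 Mice bearing the transplanted tumor received compound or vehicle. Survival of the treated group was divided by that of the vehicle-treated control group to give the ratio.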

[1] = dose: 100.0 mg/kg/injection, schedule: Q01DX009 (ip), vehicle: saline with Tween-80
[2] = dose: 200.0 mg/kg/injection, schedule: Q01DX009 (ip), vehicle: saline with Tween-80
[3] = dose: 100.0 mg/kg/injection, schedule: Q04DX003 (ip), vehicle: saline with Tween-80
[4] = dose: 200.0 mg/kg/injection, schedule: Q04DX003 (ip), vehicle: saline with Tween-80
[5] = dose: 400.0 mg/kg/injection, schedule: Q04DX003 (ip), vehicle: saline with Tween-80
[6] = dose: 100.0 mg/kg/injection, schedule: Q01DX009 (ip), vehicle: Klucel (hydroxypropylcellulose) (HPC)
[7] = dose: 100.0 mg/kg/injection, schedule: Q04DX003 (ip), vehicle: Klucel (hydroxypropylcellulose) (HPC)
[8] = dose: 200.0 mg/kg/injection, schedule: Q01DX009 (ip), vehicle: Klucel (hydroxypropylcellulose) (HPC)
[9] = dose: 200.0 mg/kg/injection, schedule: Q04DX003 (ip), vehicle: Klucel (hydroxypropylcellulose) (HPC)
[10] = dose: 400.0 mg/kg/injection, schedule: Q04DX003 (ip), vehicle: Klucel (hydroxypropylcellulose) (HPC)
[11] = dose: 400.0 mg/kg/injection, schedule: Q01DX009 (ip), vehicle: Klucel (hydroxypropylcellulose) (HPC)

CCN=C(N)Nc1ccc(NC(=O)c2ccc(C(=O)Nc3ccc(NC(N)=NCC)cc3)cc2)cc1
T/C (dose: 0.12 mg/kg/injection, schedule: Q01DX Z (ip), vehicle: carboxymethylcellulose (CMC)): 101 % of control | T/C (dose: 0.25 mg/kg/injection, schedule: Q01DX Z (ip), vehicle: carboxymethylcellulose (CMC)): 105 % of control | T/C (dose: 1.0 mg/kg/injection, schedule: Q01DX Z (ip), vehicle: carboxymethylcellulose (CMC)): 154 % of control | T/C (dose: 2.0 mg/kg/injection, schedule: Q01DX Z (ip), vehicle: carboxymethylcellulose (CMC)): 227 % of control | T/C (dose: 3.0 mg/kg/injection, schedule: Q01DX Z (ip), vehicle: carboxymethylcellulose (CMC)): 261 % of control | T/C (dose: 4.0 mg/kg/injection, schedule: Q01DX Z (ip), vehicle: carboxymethylcellulose (CMC)): 264 % of control | T/C (dose: 6.0 mg/kg/injection, schedule: Q01DX Z (ip), vehicle: carboxymethylcellulose (CMC)): 198 % of control | T/C (dose: 8.0 mg/kg/injection, schedule: Q01DX Z (ip), vehicle: carboxymethylcellulose (CMC)): 155 % of control | T/C (dose: 11.0 mg/kg/injection, schedule: Q01DX001 (ip), vehicle: carboxymethylcellulose (CMC)): 122 % of control | T/C (dose: 11.0 mg/kg/injection, schedule: Q01DX001 (ip), vehicle: other): 122 % of control | T/C (dose: 16.0 mg/kg/injection, schedule: Q01DX Z (ip), vehicle: carboxymethylcellulose (CMC)): 121 % of control | T/C (dose: 21.0 mg/kg/injection, schedule: Q01DX001 (ip), vehicle: carboxymethylcellulose (CMC)): 151 % of control | T/C (dose: 21.0 mg/kg/injection, schedule: Q01DX001 (ip), vehicle: other): 155 % of control | T/C (dose: 32.0 mg/kg/injection, schedule: Q01DX001 (ip), vehicle: carboxymethylcellulose (CMC)): 163 % of control | T/C (dose: 32.0 mg/kg/injection, schedule: Q01DX001 (ip), vehicle: other): 164 % of control | T/C (dose: 32.0 mg/kg/injection, schedule: Q01DX Z (ip), vehicle: carboxymethylcellulose (CMC)): 91 % of control | T/C (dose: 48.0 mg/kg/injection, schedule: Q01DX001 (ip), vehicle: carboxymethylcellulose (CMC)): 209 % of control | T/C (dose: 48.0 mg/kg/injection, schedule: Q01DX001 (ip), vehicle: other): 204 % of control | T/C (dose: 50.0 mg/kg/injection, schedule: Q01DX Z (oral), vehicle: carboxymethylcellulose (CMC)): 118 % of control | T/C (dose: 100.0 mg/kg/injection, schedule: Q01DX Z (oral), vehicle: carboxymethylcellulose (CMC)): 104 % of control | T/C (dose: 200.0 mg/kg/injection, schedule: Q01DX Z (oral), vehicle: carboxymethylcellulose (CMC)): 96 % of control | T/C (dose: 400.0 mg/kg/injection, schedule: Q01DX Z (oral), vehicle: carboxymethylcellulose (CMC)): 118 % of control

CN=C(NC)c1ccc(NC(=O)c2ccc(C(=O)Nc3ccc(C(=NC)NC)cc3)c(N)c2)cc1
T/C (dose: 0.28 mg/kg/injection, schedule: Q01DX Z (ip), vehicle: water): 98 % of control | T/C (dose: 0.56 mg/kg/injection, schedule: Q01DX Z (ip), vehicle: water): 93 % of control | T/C (dose: 1.12 mg/kg/injection, schedule: Q01DX Z (ip), vehicle: water): 170 % of control | T/C (dose: 2.25 mg/kg/injection, schedule: Q01DX Z (ip), vehicle: water): 157 % of control | T/C (dose: 4.5 mg/kg/injection, schedule: Q01DX Z (ip), vehicle: carboxymethylcellulose (CMC)): 180 % of control | T/C (dose: 9.0 mg/kg/injection, schedule: Q01DX Z (ip), vehicle: carboxymethylcellulose (CMC)): 159 % of control | T/C (dose: 36.0 mg/kg/injection, schedule: Q01DX Z (ip), vehicle: carboxymethylcellulose (CMC)): 117 % of control | T/C (dose: 50.0 mg/kg/injection, schedule: Q01DX Z (oral), vehicle: water): 102 % of control | T/C (dose: 100.0 mg/kg/injection, schedule: Q01DX Z (oral), vehicle: water): 105 % of control | T/C (dose: 200.0 mg/kg/injection, schedule: Q01DX Z (oral), vehicle: water): 103 % of control | T/C (dose: 400.0 mg/kg/injection, schedule: Q01DX Z (oral), vehicle: water): 103 % of control

O=Cc1[nH]c(=S)[nH]c(=O)c1Cc1cccc2ccccc12
T/C [1]: 97 % of control | T/C [2]: 101 % of control

CC(=O)OCC(OC(C)=O)C(OC(C)=O)C(C=O)OC(C)=O (stereo not given)
T/C (dose: 100.0 mg/kg/injection, schedule: Q01DX001 (ip), vehicle: Klucel (hydroxypropylcellulose) (HPC)): 105 % of control | T/C [1]: 90 % of control | T/C [3]: 93 % of control | T/C (dose: 200.0 mg/kg/injection, schedule: Q01DX001 (ip), vehicle: Klucel (hydroxypropylcellulose) (HPC)): 97 % of control | T/C [2]: 93 % of control | T/C [4]: 88 % of control | T/C (dose: 400.0 mg/kg/injection, schedule: Q01DX001 (ip), vehicle: Klucel (hydroxypropylcellulose) (HPC)): 105 % of control | T/C (dose: 400.0 mg/kg/injection, schedule: Q01DX009 (ip), vehicle: saline with Tween-80): 88 % of control | T/C [5]: 91 % of control

CN(C)CCCNC(=S)C(=S)NCCCN(C)C
T/C (dose: 50.0 mg/kg/injection, schedule: Q01DX009 (ip), vehicle: Klucel (hydroxypropylcellulose) (HPC)): 105 % of control | T/C [6]: 105 % of control | T/C [7]: 94 % of control | T/C [8]: 96 % of control | T/C [9]: 94 % of control

O=C(Nc1cc(C(F)(F)F)ccc1Cl)C(=O)Nc1cc(C(F)(F)F)ccc1Cl
T/C (dose: 100.0 mg/kg/injection, schedule: Q01DX009 (ip), vehicle: gum acacia): 88 % of control | T/C (dose: 200.0 mg/kg/injection, schedule: Q01DX009 (ip), vehicle: gum acacia): 93 % of control | T/C (dose: 400.0 mg/kg/injection, schedule: Q01DX009 (ip), vehicle: gum acacia): 93 % of control

CC(=O)Nc1cc(Cl)ccc1Cl
T/C [7]: 102 % of control | T/C [9]: 88 % of control | T/C [10]: 102 % of control

NC(CCC(=O)NC1(C(=O)O)C2CC3CC(C2)CC1C3)C(=O)O (stereo not given)
T/C [6]: 87 % of control | T/C [8]: 103 % of control | T/C [11]: 89 % of control

CS(=O)(=O)N(CC(=O)O)Cc1ccc(Cl)c(Cl)c1
T/C (dose: 100.0 mg/kg/injection, schedule: Q01DX009 (ip), vehicle: other): 100 % of control | T/C (dose: 100.0 mg/kg/injection, schedule: Q04DX003 (ip), vehicle: other): 97 % of control | T/C (dose: 200.0 mg/kg/injection, schedule: Q01DX009 (ip), vehicle: other): 104 % of control | T/C (dose: 200.0 mg/kg/injection, schedule: Q04DX003 (ip), vehicle: other): 97 % of control | T/C (dose: 400.0 mg/kg/injection, schedule: Q01DX009 (ip), vehicle: other): 96 % of control | T/C (dose: 400.0 mg/kg/injection, schedule: Q04DX003 (ip), vehicle: other): 95 % of control

COC(=O)C1CC[N-]CC1.COC(=O)C1CC[N-]CC1.[Cl][Pt+2][Cl]
T/C [3]: 106 % of control | T/C [4]: 106 % of control | T/C [5]: 106 % of control

CCCCCCCN(CCCCCCC)CC(O)c1cc2ccc(Cl)cc2c2ncccc12 (stereo not given)
T/C (dose: 100.0 mg/kg/injection, schedule: Q01DX009 (sc), vehicle: olive oil, sesame oil, peanut oil): 109 % of control | T/C (dose: 200.0 mg/kg/injection, schedule: Q01DX009 (sc), vehicle: olive oil, sesame oil, peanut oil): 108 % of control | T/C (dose: 400.0 mg/kg/injection, schedule: Q01DX009 (sc), vehicle: olive oil, sesame oil, peanut oil): 95 % of control

O=C(O)CCC(=O)Nc1ccccc1
T/C [7]: 95 % of control | T/C [9]: 97 % of control | T/C [10]: 101 % of control

CCN(CC)CCNC(=O)Nc1ccc(OC)cc1
T/C [6]: 96 % of control | T/C [8]: 103 % of control

CC1CCCC2=[N+]1CCCC2 (stereo not given)
T/C (dose: 50.0 mg/kg/injection, schedule: Q01DX001 (ip), vehicle: carboxymethylcellulose (CMC)): 96 % of control | T/C (dose: 100.0 mg/kg/injection, schedule: Q01DX001 (ip), vehicle: carboxymethylcellulose (CMC)): 96 % of control | T/C (dose: 200.0 mg/kg/injection, schedule: Q01DX001 (ip), vehicle: carboxymethylcellulose (CMC)): 93 % of control

O=C(Nc1ccc(Cl)c(Cl)c1)Oc1ccc(C2CCCCC2)cc1
T/C [6]: 95 % of control | T/C [7]: 111 % of control | T/C [8]: 95 % of control | T/C [9]: 109 % of control | T/C [11]: 97 % of control | T/C [10]: 101 % of control

CCOC(=O)C1(CCCBr)CCCCC1=O (stereo not given)
T/C (dose: 100.0 mg/kg/injection, schedule: Q01DX001 (ip), vehicle: saline with Tween-80): 107 % of control | T/C (dose: 200.0 mg/kg/injection, schedule: Q01DX001 (ip), vehicle: saline with Tween-80): 102 % of control | T/C (dose: 400.0 mg/kg/injection, schedule: Q01DX001 (ip), vehicle: saline with Tween-80): 104 % of control

CCC(C)C(NC(=O)CNC(=O)OCc1ccccc1)C(=O)O (stereo not drawn) (Cbz-Gly-[ξI]-OH)
T/C [3]: 107 % of control | T/C [4]: 97 % of control | T/C [5]: 98 % of control
